Data published in patent US9955691B2, “Macrocyclic picolinamides as fungicides” (DOW AGROSCIENCES LLC, priority 2014, dated 2018).
Like-named read-outs stand apart in the source and are kept apart here.

Assays:
[1] = tested on: Mycosphaerella graminicola; Anamorph: Septoria tritici; assay: Fungicidal activity: Leaf Blotch of Wheat (SEPTTR); type: in vivo; settings: Zymoseptoria tritici, High Volume (100 ppm), wheat leaf blotch
Method in brief: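 Compounds were dissolved in acetone, diluted with nine volumes of water containing 110 ppm Triton X-100, and sprayed to run-off on first-leaf Yuma wheat seedlings inoculated with Septoria tritici spores before or after treatment. Plants were held in a dew chamber, then a 20° C. greenhouse. Percent control was derived from disease severity relative to untreated plants.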

Puccinia triticina = assay: Fungicidal activity: Wheat Brown Rust (PUCCRT); type: in vivo; settings: High Volume (100 ppm)
Method in brief: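 Wheat seedlings (Yuma, first leaf) sprayed to run-off with compound in acetone/water with Triton X-100, inoculated with Puccinia triticina before or after treatment. Held overnight in dark dew at 22° C, then greenhouse at 24° C; percent disease control from severity versus untreated plants.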

[2] = 24 h, 1 Day Protectant, read-out: SEPTTR 1 DP disease control
[3] = 72 h, 3 Day Curative, read-out: SEPTTR 3 DC disease control
[4] = 24 h, 1 Day Protectant, read-out: PUCCRT 1 DP disease control
[5] = 72 h, 3 Day Curative, read-out: PUCCRT 3 DC disease control

Row | SMILES | pest or weed control at 100 µg/mL [1, 2] [%] | pest or weed control at 100 µg/mL [1, 3] [%] | pest or weed control at 100 µg/mL (Puccinia triticina; [4]) [%] | pest or weed control at 100 µg/mL (Puccinia triticina; [5]) [%]
1 | CCCC[C@@H]1[C@@H](Cc2ccc(C(F)(F)F)cc2)COC[C@H](NC(=O)c2nccc(OC)c2O)C(=O)O[C@H]1C [compound 123] | < 70 | < 70 | < 70 | < 70
2 | COc1ccnc(C(=O)N[C@H]2COC[C@H](Cc3ccccc3)[C@@H](CC(C)C)[C@H](C)OC2=O)c1O [compound 125] | < 70 | < 70 | > 70 | < 70
3 | CCC[C@H]1COC[C@H](NC(=O)c2nccc(OC)c2O)C(=O)O[C@@H](C)[C@@H]1Cc1ccccc1 [compound 126] | > 70 | > 70 | > 70 | > 70
4 | COc1ccnc(C(=O)N[C@H]2COC[C@H](CC3CCCC3)[C@@H](CC3CCCC3)[C@H](C)OC2=O)c1O [compound 127] | > 70 | > 70 | > 70 | > 70
5 | COc1ccnc(C(=O)N[C@H]2COC[C@H](Cc3ccccc3)[C@@H](CCc3ccccc3)[C@H](C)OC2=O)c1O [compound 128] | > 70 | > 70 | > 70 | < 70
6 | COc1ccnc(C(=O)N[C@H]2COC[C@H](CCC(C)C)[C@@H](CCc3ccccc3)[C@H](C)OC2=O)c1O [compound 129] | > 70 | > 70 | > 70 | > 70
7 | COc1ccnc(C(=O)N[C@H]2COC[C@H](CCC(C)C)[C@@H](Cc3ccccc3)[C@H](C)OC2=O)c1O [compound 133] | > 70 | > 70 | > 70 | > 70
8 | COc1ccnc(C(=O)N[C@H]2COC[C@H](Cc3ccc(Cl)cc3)[C@@H](Cc3ccccc3)[C@H](C)OC2=O)c1O [compound 135] | > 70 | < 70 | > 70 | < 70
9 | COc1ccnc(C(=O)N[C@H]2COC[C@H](Cc3ccc(C(F)(F)F)cc3)[C@@H](Cc3ccccc3)[C@H](C)OC2=O)c1O [compound 136] | > 70 | < 70 | > 70 | > 70
10 | COc1ccnc(C(=O)N[C@H]2COC[C@H](Cc3ccc(C(F)(F)F)cc3)[C@@H](Cc3ccc(OC(F)(F)F)cc3)[C@H](C)OC2=O)c1O [compound 138] | < 70 | < 70 | < 70 | < 70
11 | CCC[C@H]1COC[C@H](NC(=O)c2nccc(OC)c2O)C(=O)O[C@@H](C)[C@@H]1CC(C)C [compound 142] | < 70 | < 70 | < 70 | < 70
12 | COc1ccnc(C(=O)N[C@H]2COC[C@H](Cc3ccccc3)[C@@H](Cc3ccc(F)cc3)[C@H](C)OC2=O)c1O [compound 143] | > 70 | < 70 | > 70 | < 70
13 | COc1ccnc(C(=O)N[C@H]2COC[C@H](CCCc3ccccc3)[C@@H](CC(C)C)[C@H](C)OC2=O)c1O [compound 144] | > 70 | > 70 | > 70 | > 70
14 | COc1ccnc(C(=O)N[C@H]2COC[C@H](Cc3ccc(Cl)cc3)[C@@H](CC(C)C)[C@H](C)OC2=O)c1O [compound 145] | > 70 | > 70 | > 70 | > 70
15 | COc1ccnc(C(=O)N[C@H]2COC[C@H](CCCc3ccccc3)[C@@H](Cc3ccc(OC(F)(F)F)cc3)[C@H](C)OC2=O)c1O [compound 146] | < 70 | < 70 | < 70 | < 70
16 | COc1ccnc(C(=O)N[C@H]2COC[C@H](Cc3ccc(C(F)(F)F)cc3)[C@@H](Cc3ccc(F)cc3)[C@H](C)OC2=O)c1O [compound 147] | > 70 | < 70 | > 70 | < 70
